The results in this text go back to article PMC6776562, “Inhibition of Rac1-dependent forgetting alleviates memory deficits in animal models of Alzheimer’s disease” (Protein & Cell, 2019).

SMILES strings stand for the structures.

The test system of one data set is MDR-MDCK cell line. Nature of the data set: In vitro blood-brain barrier permeability assay. It is filed as in vitro ADME. To be noted: 5 μmol/L, 37 °C, 90 min. The method, then: The MDR-MDCK cell line can be used as a fast blood-brain barrier (BBB) model to aid drug discovery (Wang et al., [2005]). In this study, the MDR-MDCK cell line was used to evaluate the permeability coefficients of CS7171 and JKF-034. Briefly, CS7171 and JKF-034 were prepared to final concentrations of 5 μmol/L. The cells were dosed on the basolateral side (B-A) and apical side (A-B) and incubated at 37 °C for 90 min. Each test was performed in duplicate. The apparent permeability coefficient, Papp, was calculated using the following formula: Papp=VA/Area×Time×(drugacceptor,90-min/drugdonor,0-min×Dilution Factor
VA is the volume in the acceptor well, Area is the surface area of the membrane, Time is the total transport time in seconds, [drug]donor, 0-min is the donor drug concentration measured at 0 min; [drug]acceptor, 90-min is the acceptor drug concentration measured at 90 min; dilution factor is the degree of dilution of the donor sample before loading to LC-MS/MS.

Data set [1] is described as follows: In vitro metabolic stability in liver microsomes (species not separated). It is filed as in vitro ADME, human, monkey, and mouse. To be noted: all species of Table 4. As to the method: (§1) Measurements of metabolic stability can be performed with liver microsomes, which are known to contain the major drug-metabolizing enzymes and UDP-glucuronosyltransferase (Baranczewski et al., [2006]). The in vitro metabolic stability levels of CS7171 and JKF-034 were measured using human, monkey, and mouse liver microsomes. The metabolic half-time (T1/2) and intrinsic clearance (Clint) were assayed using LC-MS analysis. Ketanserin is a potent, orally effective antagonist of endogenous serotonin. Its pharmacological profile is well studied (Brogden and Sorkin, [1990]). In this study, we used ketanserin as a control. If the T1/2 of the tested compound was 30–120 min, the compound was considered to show moderate metabolism in liver microsomes. If the T1/2 value was less than 30 min, the compound was considered to be susceptible to metabolism in liver microsomes.
For orientation: Microsomes from liver hold many membrane-bound enzymes, among them those of drug oxidation.

The next data set relates to Aβ42. Nature of the data set: Aβ42 level by Western blot (6E10 antibody) after drug administration. It is filed as in vivo, APP/PS1 mice. To be noted: for level of Aβ42 monomer: 7-month-old APP/PS1 mice, two weeks of P.O administration. The method, then: The hippocampal tissues from human subjects and mice were harvested and stored in a liquid nitrogen tank for biochemical assay. The tissues were homogenized in cold lysis buffer (Merck-Millipore, 20-168). The insoluble debris were removed after centrifugation at 13,000 rpm (for 10 min, at 4 °C). For GTP-bound Rac/Cdc42, lysates were incubated with GST-tagged PAK (p21-activated kinase)-PBD agarose beads (Cytoskeleton, PAK02) overnight at 4 °C. On the second day, the beads were washed three times with lysis buffer before subjecting them to SDS-PAGE (15%) and transferring them onto nitrocellulose membranes (Millipore, HATF00010). The membranes were incubated with primary antibodies (for Rac1: BD Transduction Laboratories, #610650, 1:2,000 dilution; for Cdc42, Santa Cruz Biotechnology, lot No. sc-8401, 1:500 dilution) overnight at 4 °C and with HRP-conjugated goat anti-mouse IgG (Cell Signaling Technology, #7076) for 1 h at room temperature. Intensities of the detected bands were analyzed using ImageJ software (National Institutes of Health). The total amount of Rac1 in the lysate was detected using a routine Western blot procedure. RhoA-GTP levels were measured by using the Rho-GTP monoclonal antibody (New East, lot No. 26904, Dilution: 1:1,000). Information regarding the other antibodies used is as follows: anti-RhoA (67B9), Cell Signaling, lot No. #2117, dilution: 1:1,000; anti-Actin, Clone C4, Millipore, lot No. #3018859, dilution: 1:2,000; anti-Amyloid 1-42 6E10, BioLegend, lot No. 803001, dilution: 1:1,000; anti-Phospho-PAK1 ([…])/PAK2 ([…]), Cell Signaling, lot No. #2606, dilution: 1:1,000. page 2: A Representative […] blot of AE42 detected by AE42 monoclonal antibody (6E10) after two weeks of administration (P.O) of CS7171 and JKF-034 in 7-month-old APP/PS1 mice. B The level of AE42 monomer was decreased by JKF-034. […] D Representative […] blot of total RhoA, total Cdc42, RhoA-GTP, and Cdc42-GTP after two weeks of drug administration (P.O) of CS7171 and JKF-034 in 7-month-old APP/PS1 mice. […] Data information: All values are expressed as mean r SEM.
A general note: In western blotting, separated proteins are transferred to a membrane and probed.

Data set [2] can be described thus: In vitro metabolic stability in monkey liver microsomes. It is filed as in vitro ADME. As to the method: as §1

Regarding `O=C1NN(c2ccc(Cl)c(Cl)c2)C(=O)C1=Cc1ccc(O)c(N(O)O)c1` [CS7171], in the data set on MDR-MDCK cell line, the “Papp Mean, A-B” value was 7.91 10^−6 cm/s and the “Papp Mean, B-A” value is given as 3.61 10^−6 cm/s. Further, the “T1/2 in liver microsomes” value in data set [1] is given as “less than 30 min”. Besides, the “level of Aβ42 monomer” value in the data set with Aβ42 is “did not aff ect”. In data set [2], the Clint is 229.15 mL/min/kg and the T1/2 amounted to 8.85 min.
For `O=S(=O)(c1ccccc1)N1CCN(Cc2ccccc2)CC1` [JKF-034], in the data set with MDR-MDCK cell line, the “Papp Mean, A-B” value was 57.33 10^−6 cm/s and the “Papp Mean, B-A” value was 32.79 10^−6 cm/s. In data set [1], the “T1/2 in liver microsomes” value is on record as “less than 30 min”. For the same compound, the “level of Aβ42 monomer” value in the data set on Aβ42 is listed as “decreased”. Besides, in the data set with Aβ42 (APP/PS1 mice, Fig. S4A–C), the Aβ42 accumulation entry is “reduction”. Besides, in data set [2], the Clint came to 401.14 mL/min/kg and the T1/2 is given as 5.05 min.
